Assay results published in US8680070B2, “Medical implants containing adenosine receptor agonists and methods for inhibitiing medical implant loosening” (New York University, priority 2007, dated 2014).

Columns and labels:
RAW264.7 cells = assay: Osteoclastogenesis: TRAP-positive multinucleated cells from RANKL-stimulated RAW264.7 cells; assay type: cell-based, murine; details: RANKL 30 ng/ml, four days of culture, vs untreated cells, listed as Adenosine A2A receptor antagonist
Experimental: Osteoclast formation was evaluated by quantification of TRAP-positive MNCs as described previously. TRAP is preferentially expressed at high levels in osteoclasts and is considered, especially in the mouse, to be an osteoclast marker. After incubation, cells on wells were washed in PBS, fixed in 4% paraformaldehyde for 10 min, and stained for acid phosphatase in the presence of 0.3 M sodium tartrate (Sigma-Aldrich). The substrate used was napthol AS-BI phosphate (Sigma-Aldrich). Only those cells that were strongly TRAP-positive (dark red) and have more than 3 nuclei were counted by light microscopy. To evaluate the size of the Osteoclast over time, we counted the number of nuclei per OCL in 50 OCLs for each of the three wells(n=150). The mean number of nuclei per OCL (MNN) and SE were calculated for each time-point, and ANOVA analysis was performed to determine statistically significant differences. RAW264.7 is a macrophage cell line having the capacity to form osteoclast-like cells. Because the RAW264.7 cells provide an excellent in vitro model for dissecting the cellular and molecular regulation of osteoclast differentiation and activation, we studied the effect of adenosine A2A receptors on the osteoclasts generated from the RAW264.7 cells. Cell Culture and Osteoclastogenesis. […]

TRAF6 protein = assay: Western blotting of TRAF6 protein in RAW264.7 cells; assay type: cell-based, murine; details: 1 μg/ml for 4 days, then RANKL 30 ng/ml, β-actin as comparison
Experimental: Western blotting. Osteoclast precursors were preincubated with or without CGS21680 (1 μg/ml) or ZM241385 (1 μg/ml) for 4 days and then stimulated with RANKL (30 ng/ml) for the indicated period. For isolation of total proteins, cells were washed twice with PBS and lysed in RIPA buffer. Proteins were estimated and boiled with sample buffer for 5 min and were subjected to electrophoresis on 10% SDS-PAGE. Proteins were transferred onto a nitrocellulose membrane. Membranes were blocked for 2 hours in blocking solution (5% nonfat dry milk in TBS containing 0.1% Tween 20) and exposed to primary Abs overnight at 4° C. After washing, the membranes were incubated for 1 hour at room temperature with secondary Ab, and the proteins were detected using ECL reagents according to the manufacturer's instructions. To reprobe the membranes with other Abs, the membranes were stripped with 100 mM 2-ME, 2% SDS, and 62.5 mM Tris-HCl (pH 6.9) for 20 min at 50° C., followed by immunoblotting as described above.

| SMILES | osteoclast formation (number of multinucleated TRAP+ osteoclasts) (RAW264.7 cells) | TRAF6 levels (TRAF6 protein) |
| --- | --- | --- |
| Nc1nc(NCCc2ccc(O)cc2)nc2nc(-c3ccco3)nn12 [adenosine A2A receptor antagonist, ZM241385] | increased number | – |
| CCNC(=O)[C@H]1O[C@@H](n2cnc3c(N)nc(NCCc4ccc(CCC(=O)O)cc4)nc32)[C@H](O)[C@@H]1O [A2A receptor agonist, CGS 21680] | – | diminish |
